According to patent US10238670B2, “9-aminomethyl minocycline compounds and methods of use thereof in urinary tract infection (UTI) treatment” (Paratek Pharmaceuticals, Inc., priority 2016, dated 2019):
Where two headings read alike, the source gives them in different places.

Test: Phase 1b study in female adults with cystitis, plasma PK
Type: in vivo, human
Settings: plasma, plasma; for half-life / AUC(0-t) / Cmax / concentration at 5 day / Tmax: female, human
Experimental: According to the study design, a randomized (1:1:1), open-label, parallel designed Phase 1b study comparing 3 dosing regimens of Compound 1 (9-[(2,2-dimethyl-propyl amino)-methyl-minocycline) in the treatment of female adults with cystitis was conducted. About 31 female patients with uncomplicated urinary tract infection (cystitis) who met inclusion and exclusion criteria were enrolled at 2-4 U.S. treatment centers. All enrolled subjects participated in the study for approximately 5-6 weeks. Following Screening of up to 48 hrs, eligible subjects were randomly assigned to receive one of 3 dosing regimens of Compound 1 treatment as shown below. Subjects in all treatment groups were domiciled for a 5-day treatment period. Details of the study are further described below.
Subjects were randomized (1:1:1) to one of the following treatment arms: • 1. Group 1: IV load, p.o. daily (200 mg Compound 1 IV every 24 hours (q24h) for 1 dose, followed by 300 mg p.o. q24h for a total of 5 days); • 2. Group 2: p.o. load, p.o. daily (300 mg Compound 1 p.o. every 12 hours (q12h) for 2 doses, followed by 300 mg p.o. q24h for a total of 5 days); • 3. Group 3: high p.o. load, high p.o. daily (450 mg Compound 1 p.o. q12h for 2 doses, followed by 450 mg p.o. q24h for a total of 5 days).
Blood samples were collected and analyzed for Compound 1 concentration at the following times. Pre-dose blood PK evaluations were based on blood samples collected within 10 min of each start (e.g., t=0 h dose for Day 1, t=24 h dose for Day 2, etc.). • Day 1: Pre-dose, and 0.75, 1, 2, 3, 4, 6, 8 and 12 hours after the t=0 h dose (12 h sample before the t=12 h dose for Groups 2 and 3); • Day 2: prior to the t=24 h dose; • Day 3: prior to the t=48 h dose; • Day 4: prior to the t=72 h dose; • Day 5: Pre-dose, and 0.5, 1, 2, 3, 4, 6, 8 and 12 hours after the t=96 h dose • Day 6: at t=120 h (24 hours after the t=96 h dose on Day 5)
Following the final oral doses on Day 5 the Compound 1 plasma concentration-time data for Groups 1, 2 and 3 were used to determine Cmax, Tmax, AUC24h, AUCt. Trough plasma concentrations (Ctrough) following each dose (Days 2 to 6) were also determined.
Blood samples for PK are collected at the time points specified below. • Day 1: Predose, and 0.75, 1, 2, 3, 4, 6, 8 and 12 hours after the t=0 h dose (12 h sample before the t=12 h dose for Groups 2 and 3); • Day 2: prior to the t=24 h dose; • Day 3: prior to the t=48 h dose; • Day 4: prior to the t=72 h dose; • Day 5: Predose, and 0.5, 1, 2, 3, 4, 6, 8 and 12 hours after the t=96 h dose • Day 6: at t=120 h (24 hours after the t=96 h dose on Day 5)
Blood was collected either by fresh venipuncture or via a cannula used solely for that purpose. The dates and times for all doses of test article and PK sample collections were recorded. For intravenously administered doses of test article, the start and stop times for each infusion were recorded. Immediately after the sample was collected, the tube was gently inverted 5 to 8 times to thoroughly mix the anticoagulant and then placed upright in a cryoblock or test tube rack surrounded by ice until centrifugation. Samples were centrifuged at 1500×g for 10 minutes at approximately 4° C. within 30 minutes of collection. The resultant plasma was divided into 2 equal aliquots, placed in individual cryovials, and immediately frozen at −20° C. or colder within 1 hour of collection. The samples were kept frozen at −20° C. or colder pending shipment to the bioanalytical laboratory.
The Compound 1 plasma concentration data was listed and summarized by time point and treatment group. The following PK parameters were estimated from the Compound 1 plasma concentration-time data: […]

## CN(C)c1cc(CNCC(C)(C)C)c(O)c2c1C[C@H]1C[C@H]3[C@H](N(C)C)C(O)=C(C(N)=O)C(=O)[C@@]3(O)C(O)=C1C2=O [Compound 1, 9-[(2,2-dimethyl-propylamino)-methyl]-minocycline]
oral, 300 mg, Day 5, IV_PO300, read-out: T½, Mean (converted)
  half-life: 13.8 h
oral, 300 mg, Day 5, IV_PO300, read-out: T½, Median (converted)
  half-life: 12.1 h
oral, 300 mg, Day 5, PO300, read-out: AUC(0-24 hrs), Geo. Mean
  AUC(0-t): 12400 ng·h/mL
oral, 300 mg, Day 5, PO300, read-out: AUC(0-24 hrs), Mean
  AUC(0-t): 13500 ng·h/mL
oral, 300 mg, Day 5, PO300, read-out: AUC(0-24 hrs), Median
  AUC(0-t): 13400 ng·h/mL
oral, 300 mg, Day 5, PO300, read-out: Cmax, Geo. Mean
  Cmax: 999 ng/mL
oral, 300 mg, Day 5, PO300, read-out: Cmax, Mean
  Cmax: 1120 ng/mL
oral, 300 mg, Day 5, PO300, read-out: Cmax, Median
  Cmax: 1070 ng/mL
oral, 300 mg, Day 5, PO300, read-out: Ctrough, Geo. Mean
  concentration at 5 day: 293 ng/mL
oral, 300 mg, Day 5, PO300, read-out: Ctrough, Mean
  concentration at 5 day: 319 ng/mL
oral, 300 mg, Day 5, PO300, read-out: Ctrough, Median
  concentration at 5 day: 315 ng/mL
oral, 300 mg, Day 5, PO300, read-out: Tmax, Geo. Mean
  Tmax: 3.61 h
oral, 300 mg, Day 5, PO300, read-out: Tmax, Mean
  Tmax: 3.9 h
oral, 300 mg, Day 5, PO300, read-out: Tmax, Median
  Tmax: 3 h
oral, 450 mg, Day 1, PO450, read-out: AUC(0-12 hrs), Geo. Mean
  AUC(0-t): 6690 ng·h/mL
oral, 450 mg, Day 1, PO450, read-out: AUC(0-12 hrs), Mean
  AUC(0-t): 6850 ng·h/mL
oral, 450 mg, Day 1, PO450, read-out: AUC(0-12 hrs), Median
  AUC(0-t): 6650 ng·h/mL
oral, 450 mg, Day 1, PO450, read-out: Cmax, Geo. Mean
  Cmax: 948 ng/mL
oral, 450 mg, Day 1, PO450, read-out: Cmax, Mean
  Cmax: 987 ng/mL
oral, 450 mg, Day 1, PO450, read-out: Cmax, Median
  Cmax: 947 ng/mL
oral, 450 mg, Day 1, PO450, read-out: Tmax, Geo. Mean
  Tmax: 2.21 h
oral, 450 mg, Day 1, PO450, read-out: Tmax, Median
  Tmax: 3 h
oral, 450 mg, Day 5, PO450, read-out: AUC(0-24 hrs), Geo. Mean
  AUC(0-t): 18700 ng·h/mL
oral, 450 mg, Day 5, PO450, read-out: AUC(0-24 hrs), Mean
  AUC(0-t): 19800 ng·h/mL
oral, 450 mg, Day 5, PO450, read-out: AUC(0-24 hrs), Median
  AUC(0-t): 21600 ng·h/mL
oral, 450 mg, Day 5, PO450, read-out: Cmax, Geo. Mean
  Cmax: 1360 ng/mL
oral, 450 mg, Day 5, PO450, read-out: Cmax, Mean
  Cmax: 1490 ng/mL
oral, 450 mg, Day 5, PO450, read-out: Cmax, Median
  Cmax: 1640 ng/mL
oral, 450 mg, Day 5, PO450, read-out: Ctrough, Geo. Mean
  concentration at 5 day: 462 ng/mL
oral, 450 mg, Day 5, PO450, read-out: Ctrough, Mean
  concentration at 5 day: 484 ng/mL
oral, 450 mg, Day 5, PO450, read-out: Ctrough, Median
  concentration at 5 day: 503 ng/mL
oral, 450 mg, Day 5, PO450, read-out: Tmax, Geo. Mean
  Tmax: 2.64 h
oral, 450 mg, Day 5, PO450, read-out: Tmax, Mean
  Tmax: 3.36 h
oral, 450 mg, Day 5, PO450, read-out: Tmax, Median
  Tmax: 3.02 h
po, 300 mg, Day 1, 300 mg po (n = 10), median, read-out: tmax
  Tmax: 3 h
po, 300 mg, Day 5, 300 mg po (n = 10), mean, read-out: Cmax
  Cmax: 1120 ng/mL
po, 300 mg, Day 5, 300 mg po (n = 10), median, read-out: tmax
  Tmax: 3 h
po, 450 mg, Day 1, 450 mg po (n = 10), mean, read-out: AUC0-12
  AUC(0-t): 6850 ng·h/mL
po, 450 mg, Day 1, 450 mg po (n = 10), median, read-out: tmax
  Tmax: 3 h
po, 450 mg, Day 1, 450 mg po (n = 10), mean, read-out: Cmax
  Cmax: 990 ng/mL
po, 450 mg, Day 5, 450 mg po (n = 10), mean, read-out: AUC0-24
  AUC(0-t): 19800 ng·h/mL
po, 450 mg, Day 5, 450 mg po (n = 10), mean, read-out: Cmax
  Cmax: 1490 ng/mL
po, 450 mg, Day 5, 450 mg po (n = 10), median, read-out: tmax
  Tmax: 3 h
Day 1, IV_PO300
  Lambda Z, Geo. Mean: 0.0614 h⁻¹
  Lambda Z, Mean: 0.0620 h⁻¹
  Lambda Z, Median: 0.0605 h⁻¹
Day 1, PO450
  Tmax, Mean: 2.492 h
Day 5, IV_PO300
  Lambda Z, Geo. Mean: 0.0526 h⁻¹
  Lambda Z, Mean: 0.0545 h⁻¹
  Lambda Z, Median: 0.0574 h⁻¹
